The values that follow are results of earlier work, collected in PubChem BioAssay AID1259409 (Chemical Carcinogenesis Research Information System (CCRIS), 2018).

For the series, the system named is rodent chemically induced tumor inhibition, incidence and multiplicity. The series is described as follows: CCRIS tumor inhibitor studies. Conditions: Dose [Inhibitor]: 0, Route [Inhibitor]: ORAL.

Consider `O=C(O)c1ccc(O)c(O)c1`, for which the “tumour outcome (control, treated, inhibition, significance)” value (Carcinogen: N-BUTYL-N-(4-HYDROXYBUTYL)NITROSAMINE, 3817-11-6, 2000 PPM IN DIET FOR 33 WK BEGINNING 1 WK POST CARCINOGEN TREATMENT (STUDY DURATION: 41 WK), Species: RAT, Strain/Sex: F344/MALE, Target Tissue: Type of Lesion: BLADDER: CARCINOMA, Dose [Carcinogen]: 0.05% IN DRINKING WATER FOR 6 WK, Promoter: NONE USED) is 17/22 (77%), 11/27 (41%), 47%, p<0.03; the “tumour outcome (control, treated, inhibition, significance)” value (Carcinogen: N-BUTYL-N-(4-HYDROXYBUTYL)NITROSAMINE, 3817-11-6, 2000 PPM IN DIET FOR 33 WK BEGINNING 1 WK POST CARCINOGEN TREATMENT (STUDY DURATION: 41 WK), Species: RAT, Strain/Sex: F344/MALE, Target Tissue: Type of Lesion: BLADDER: PAPILLOMA, Dose [Carcinogen]: 0.05% IN DRINKING WATER FOR 6 WK, Promoter: NONE USED) is given as 1/22 (5%), 1/27 (4%), 20%, not significant; the “tumour outcome (control, treated, inhibition, significance)” value (Carcinogen: N-METHYL-N-NITROSOUREA, 684-93-5, 1000 PPM IN DIET FOR 14 WK BEGINNING 1 WK PRIOR TO CARCINOGEN TREATMENT (STUDY DURATION: 32 WK), Species: RAT, Strain/Sex: F344/MALE, Target Tissue: Type of Lesion: GLANDULAR STOMACH: ADENOCARCINOMA, Dose [Carcinogen]: 400 PPM IN DRINKING WATER FOR 12 WK, Promoter: NONE USED) is recorded as 59%, 18%, 69%, p<0.05; the “tumour outcome (control, treated, inhibition, significance)” value (Carcinogen: N-METHYL-N-NITROSOUREA, 684-93-5, 1000 PPM IN DIET FOR 14 WK BEGINNING 1 WK PRIOR TO CARCINOGEN TREATMENT (STUDY DURATION: 36 WK), Species: RAT, Strain/Sex: F344/MALE, Target Tissue: Type of Lesion: GLANDULAR STOMACH: ADENOCARCINOMA, Dose [Carcinogen]: 400 PPM IN DRINKING WATER FOR 12 WK, Promoter: NONE USED) is recorded as 13/22 (59%), 4/22 (18%), 69%, p<0.05; the “tumour outcome (control, treated, inhibition, significance)” value (Carcinogen: N-NITROSOBIS(2-OXOPROPYL)AMINE, 60599-38-4, 500 PPM IN DIET FOR 49 WK BEGINNING 1 WK POST CARCINOGEN LAST TREATMENT (STUDY DURATION: 51 WK), Species: HAMSTER, Strain/Sex: SYRIAN/FEMALE, Target Tissue: Type of Lesion: KIDNEY: ADENOCARCINOMA, Dose [Carcinogen]: 20 MG/KG BW 1/WK FOR 2 WK) was 7%, 7%, 0%, not significant; the “tumour outcome (control, treated, inhibition, significance)” value (Carcinogen: N-NITROSOBIS(2-OXOPROPYL)AMINE, 60599-38-4, 500 PPM IN DIET FOR 49 WK BEGINNING 1 WK POST CARCINOGEN LAST TREATMENT (STUDY DURATION: 51 WK), Species: HAMSTER, Strain/Sex: SYRIAN/FEMALE, Target Tissue: Type of Lesion: LIVER: CHOLANGIOCELLULAR CARCINOMA, Dose [Carcinogen]: 20 MG/KG BW 1/WK FOR 2 WK) was 65.5%, 59%, 12%, not significant. The “tumour outcome (control, treated, inhibition, significance)” value by setting is: (Carcinogen: N-NITROSOBIS(2-OXOPROPYL)AMINE, 60599-38-4, 500 PPM IN DIET FOR 49 WK BEGINNING 1 WK POST CARCINOGEN LAST TREATMENT (STUDY DURATION: 51 WK), Species: HAMSTER, Strain/Sex: SYRIAN/FEMALE, Target Tissue: Type of Lesion: LIVER: HEMANGIOMA, Dose [Carcinogen]: 20 MG/KG BW 1/WK FOR 2 WK) 3%, 0%, 100%, not significant; (Carcinogen: N-NITROSOBIS(2-OXOPROPYL)AMINE, 60599-38-4, 500 PPM IN DIET FOR 49 WK BEGINNING 1 WK POST CARCINOGEN LAST TREATMENT (STUDY DURATION: 51 WK), Species: HAMSTER, Strain/Sex: SYRIAN/FEMALE, Target Tissue: Type of Lesion: LIVER: HEPATOCELLULAR ADENOMA, Dose [Carcinogen]: 20 MG/KG BW 1/WK FOR 2 WK) 72%, 79%, -9%, not significant; (Carcinogen: N-NITROSOBIS(2-OXOPROPYL)AMINE, 60599-38-4, 500 PPM IN DIET FOR 49 WK BEGINNING 1 WK POST CARCINOGEN LAST TREATMENT (STUDY DURATION: 51 WK), Species: HAMSTER, Strain/Sex: SYRIAN/FEMALE, Target Tissue: Type of Lesion: LIVER: HEPATOCELLULAR CARCINOMA, Dose [Carcinogen]: 20 MG/KG BW 1/WK FOR 2 WK) 17%, 14%, 20%, not significant; (Carcinogen: N-NITROSOBIS(2-OXOPROPYL)AMINE, 60599-38-4, 500 PPM IN DIET FOR 49 WK BEGINNING 1 WK POST CARCINOGEN LAST TREATMENT (STUDY DURATION: 51 WK), Species: HAMSTER, Strain/Sex: SYRIAN/FEMALE, Target Tissue: Type of Lesion: LUNG: ADENOCARCINOMA, Dose [Carcinogen]: 20 MG/KG BW 1/WK FOR 2 WK) 33%, 33%, 0%, not significant; (Carcinogen: N-NITROSOBIS(2-OXOPROPYL)AMINE, 60599-38-4, 500 PPM IN DIET FOR 49 WK BEGINNING 1 WK POST CARCINOGEN LAST TREATMENT (STUDY DURATION: 51 WK), Species: HAMSTER, Strain/Sex: SYRIAN/FEMALE, Target Tissue: Type of Lesion: LUNG: ADENOMA, Dose [Carcinogen]: 20 MG/KG BW 1/WK FOR 2 WK) 83%, 87%, -4%, not significant; (Carcinogen: N-NITROSOBIS(2-OXOPROPYL)AMINE, 60599-38-4, 500 PPM IN DIET FOR 49 WK BEGINNING 1 WK POST CARCINOGEN LAST TREATMENT (STUDY DURATION: 51 WK), Species: HAMSTER, Strain/Sex: SYRIAN/FEMALE, Target Tissue: Type of Lesion: OVARY: CYSTADENOMA, Dose [Carcinogen]: 20 MG/KG BW 1/WK FOR 2 WK) 3%, 3%, 0%, not significant. Also, the “tumour outcome (control, treated, inhibition, significance)” value by setting is: (Carcinogen: N-NITROSOBIS(2-OXOPROPYL)AMINE, 60599-38-4, 500 PPM IN DIET FOR 49 WK BEGINNING 1 WK POST CARCINOGEN LAST TREATMENT (STUDY DURATION: 51 WK), Species: HAMSTER, Strain/Sex: SYRIAN/FEMALE, Target Tissue: Type of Lesion: PANCREAS: ADENOCARCINOMA, Dose [Carcinogen]: 20 MG/KG BW 1/WK FOR 2 WK) 86%, 90%, -4%, not significant; (Carcinogen: N-NITROSOBIS(2-OXOPROPYL)AMINE, 60599-38-4, 1000 PPM IN DIET FOR 49 WK BEGINNING 1 WK POST CARCINOGEN LAST TREATMENT (STUDY DURATION: 51 WK), Species: HAMSTER, Strain/Sex: SYRIAN/FEMALE, Target Tissue: Type of Lesion: LIVER: CHOLANGIOCELLULAR ADENOMA, Dose [Carcinogen]: 20 MG/KG BW 1/WK FOR 2 WK) 31%, 34%, -11%, not significant; (Carcinogen: N-NITROSOBIS(2-OXOPROPYL)AMINE, 60599-38-4, 1000 PPM IN DIET FOR 49 WK BEGINNING 1 WK POST CARCINOGEN LAST TREATMENT (STUDY DURATION: 51 WK), Species: HAMSTER, Strain/Sex: SYRIAN/FEMALE, Target Tissue: Type of Lesion: LIVER: CHOLANGIOCELLULAR CARCINOMA, Dose [Carcinogen]: 20 MG/KG BW 1/WK FOR 2 WK) 65%, 55%, 16%, not significant; (Carcinogen: N-NITROSOBIS(2-OXOPROPYL)AMINE, 60599-38-4, 1000 PPM IN DIET FOR 49 WK BEGINNING 1 WK POST CARCINOGEN LAST TREATMENT (STUDY DURATION: 51 WK), Species: HAMSTER, Strain/Sex: SYRIAN/FEMALE, Target Tissue: Type of Lesion: LIVER: HEPATOCELLULAR ADENOMA, Dose [Carcinogen]: 20 MG/KG BW 1/WK FOR 2 WK) 72% 59%, 19%, not significant; (Carcinogen: N-NITROSOBIS(2-OXOPROPYL)AMINE, 60599-38-4, 1000 PPM IN DIET FOR 49 WK BEGINNING 1 WK POST CARCINOGEN LAST TREATMENT (STUDY DURATION: 51 WK), Species: HAMSTER, Strain/Sex: SYRIAN/FEMALE, Target Tissue: Type of Lesion: LIVER: HEPATOCELLULAR CARCINOMA, Dose [Carcinogen]: 20 MG/KG BW 1/WK FOR 2 WK) 17%, 21%, -20%, not significant; (Carcinogen: N-NITROSOBIS(2-OXOPROPYL)AMINE, 60599-38-4, 1000 PPM IN DIET FOR 49 WK BEGINNING 1 WK POST CARCINOGEN LAST TREATMENT (STUDY DURATION: 51 WK), Species: HAMSTER, Strain/Sex: SYRIAN/FEMALE, Target Tissue: Type of Lesion: LUNG: ADENOCARCINOMA, Dose [Carcinogen]: 20 MG/KG BW 1/WK FOR 2 WK) 33%, 39%, -18%, not significant. For the same molecule, the “tumour outcome (control, treated, inhibition, significance)” value was 83%, 89%, -7%, not significant (Carcinogen: N-NITROSOBIS(2-OXOPROPYL)AMINE, 60599-38-4, 1000 PPM IN DIET FOR 49 WK BEGINNING 1 WK POST CARCINOGEN LAST TREATMENT (STUDY DURATION: 51 WK), Species: HAMSTER, Strain/Sex: SYRIAN/FEMALE, Target Tissue: Type of Lesion: LUNG: ADENOMA, Dose [Carcinogen]: 20 MG/KG BW 1/WK FOR 2 WK) and 86%, 90%, -4%, not significant (Carcinogen: N-NITROSOBIS(2-OXOPROPYL)AMINE, 60599-38-4, 1000 PPM IN DIET FOR 49 WK BEGINNING 1 WK POST CARCINOGEN LAST TREATMENT (STUDY DURATION: 51 WK), Species: HAMSTER, Strain/Sex: SYRIAN/FEMALE, Target Tissue: Type of Lesion: PANCREAS: ADENOCARCINOMA, Dose [Carcinogen]: 20 MG/KG BW 1/WK FOR 2 WK).
